Results from patent US20110105397A1, “METHOD FOR TREATING HEART FAILURE WITH STRESSCOPIN-LIKE PEPTIDES” (priority 2009, published 2011).

Tests used:
[1] = Human pharmacokinetics, heart failure subjects, 7.5-hour continuous ascending dose IV infusion; conditions: in vivo; for Tmax: median
Description: In heart failure subjects following a 7.5-hour continuous ascending dose IV infusion of h-SCP (SEQ ID NO:1) noncompartmental pharmacokinetic analyses were performed on plasma concentrations of h-SCP (SEQ ID NO:1). The pharmacokinetics of h-SCP (SEQ ID NO:1) in heart failure subjects appeared to be similar to that of healthy subjects. […] Within 30 minutes, plasma h-SCP (SEQ ID NO:1) was reduced to equal or less than 20% of the h-SCP (SEQ ID NO:1) level at the end of the infusion (FIG. 16B).

healthy subjects = experiment: Human hemodynamics, healthy subjects, 24- and 72-hour continuous IV infusion, 54 ng/kg/min; type: in vivo
Description: Efficacy was based on the pharmacodynamic evaluation of hemodynamics, which was monitored using the noninvasive technique of impedance cardiography. Heart rate values were collected by impedance cardiography measurements. It was noted that the heart rate of subjects receiving placebo were elevated on the day of their infusions, at baseline before the infusion, and for the first 3 to 4 hours after the infusions were started (FIG. 17). Based on this observation, it appeared that there was a potential effect of period on the observed heart rate.
Healthy subjects who received placebo had heart rates that decreased compared with baseline during the infusion.

[2] = Human pharmacokinetics, healthy subjects, 7.5-hour continuous ascending dose IV infusion; type: in vivo; conditions: for half-life / clearance / Cmax / Tmax / AUC(0-inf): human, in vivo
Description: In healthy subjects following a 7.5-hour continuous ascending dose IV infusion of h-SCP (SEQ ID NO:1) noncompartmental pharmacokinetic analyses were performed to determine plasma concentrations of h-SCP (SEQ ID NO:1). Plasma h-SCP (SEQ ID NO:1) reached the steady state shortly after initiating the IV infusion (FIG. 16A). […] Within 30 minutes, plasma h-SCP (SEQ ID NO:1) was reduced to ≦20% of the h-SCP (SEQ ID NO:1) level at the end of infusion. […] However, the additional compartment's contribution to the overall exposure and accumulation of h-SCP (SEQ ID NO:1) is likely marginal as indicated by the effective half-lives.

[3] = infusion rate 1/3/9 ng/kg/min, mean, N = 2
[4] = infusion rate 3/9/18 ng/kg/min, mean, N = 2
[5] = infusion rate 3/18/54 ng/kg/min, mean, N = 2
[6] = healthy subjects, infusion rate 9/18/36 ng/kg/min, mean, N = 5
[7] = healthy subjects, infusion rate 18/54/72 ng/kg/min, mean, N = 3
[8] = healthy subjects, infusion rate 36/72/144 ng/kg/min, N = 1
[9] = healthy subjects, infusion rate 54/72/108 ng/kg/min, mean, N = 2

“H-TKFTLSLDVPTNIMNLLFNIAKAKNLRAQAAANAHLMAQI-NH2 [SEQ ID NO: 1, TKFTLSLDVPTNIMNLLFNIAKAKNLRAQAAANAHLMAQI-NH2]” showed an AUC(0-inf) ([1]; infusion rate 0.3/1/3 ng/kg/min, N = 1) of 3.4 ng·h/mL, a clearance ([1]; infusion rate 0.3/1/3 ng/kg/min, N = 1, read-out: CL (converted)) of 3.17 mL/min/kg and a Cmax ([1]; infusion rate 0.3/1/3 ng/kg/min, mean, N = 2) of 0.826 ng/mL. The Tmax ([1]; infusion rate 0.3/1/3 ng/kg/min, N = 2) was 6.25 h, the AUC(0-inf) [1, 3] was 6.72 ng·h/mL and the Cmax [1, 3] was 1.98 ng/mL. For the same substance, the clearance ([1]; infusion rate 1/3/9 ng/kg/min, mean, N = 2, read-out: CL (converted)) was 5.33 mL/min/kg, the Tmax ([1]; infusion rate 1/3/9 ng/kg/min, N = 2) was 7.04 h and the AUC(0-inf) [1, 4] was 19 ng·h/mL. The Cmax [1, 4] was 4.77 ng/mL, the clearance ([1]; infusion rate 3/9/18 ng/kg/min, mean, N = 2, read-out: CL (converted)) was 4 mL/min/kg and the Tmax ([1]; infusion rate 3/9/18 ng/kg/min, N = 2) was 6.75 h. The AUC(0-inf) [1, 5] was 24.9 ng·h/mL, the Cmax [1, 5] was 6.41 ng/mL and the clearance ([1]; infusion rate 3/18/54 ng/kg/min, mean, N = 2, read-out: CL (converted)) was 7.67 mL/min/kg. The Tmax ([1]; infusion rate 3/18/54 ng/kg/min, N = 2) was 6.04 h, the AUC(0-inf) ([1]; infusion rate 9/18/36 ng/kg/min, mean, N = 2) was 33.8 ng·h/mL and the clearance ([1]; infusion rate 9/18/36 ng/kg/min, mean, N = 2, read-out: CL (converted)) was 5.5 mL/min/kg. For the same substance, the half-life ([1]; infusion rate 9/18/36 ng/kg/min, mean, N = 2, read-out: T1/2, effective (converted)) was 3.95 h, the Cmax ([1]; infusion rate 9/18/36 ng/kg/min, mean, N = 3) was 5.52 ng/mL and the Tmax ([1]; infusion rate 9/18/36 ng/kg/min, N = 3) was 7.48 h. The AUC(0-inf) ([1]; infusion rate 18/36/45 ng/kg/min, N = 1) was 51.5 ng·h/mL, the clearance ([1]; infusion rate 18/36/45 ng/kg/min, N = 1, read-out: CL (converted)) was 4.83 mL/min/kg and the Cmax ([1]; infusion rate 18/36/45 ng/kg/min, mean, N = 2) was 8.04 ng/mL. It also gave a Tmax ([1]; infusion rate 18/36/45 ng/kg/min, N = 2) of 7.34 h, a clearance ([1]; read-out: Mean systemic clearance) of 3.17 to 7.67 mL/min/kg and a half-life ([1]; read-out: Mean terminal half-life) of 0.24 to 7.04 h. For the same substance, the half-life ([1]; read-out: effective half-life) was 1.32 to 2.51 h, the “time in which the increase in heart rate occurred” value (healthy subjects) was no more than 15 min and the “human equivalent dose to achieve Cpss of 620 pg/mL” value ([2]; dose = CL × Cpss / weight, 70 kg) was 4.4 ng/kg/min. For the same substance, the “expected steady-state plasma concentration (Cpss)” value ([2]; human starting dose of 0.1 ng/kg/min, pharmacokinetic-based approach) was 8.6 pg/mL, the half-life ([2]; healthy subjects, across dose groups, read-out: Mean effective half-life) was 1.54 to 14.2 h and the clearance ([2]; healthy subjects, across dose groups, read-out: Mean systemic clearance) was 4.5 to 7 mL/min/kg. For the same substance, the half-life ([2]; healthy subjects, across dose groups, read-out: Mean terminal half-life) was 2.13 to 28.5 h, the Cmax ([2]; healthy subjects, infusion rate 0.1/0.3/1 ng/kg/min, mean, N = 5) was 0.248 ng/mL and the Tmax ([2]; healthy subjects, infusion rate 0.1/0.3/1 ng/kg/min, median, N = 5) was 7.47 h. It also gave an AUC(0-inf) ([2]; healthy subjects, infusion rate 1/3/9 ng/kg/min, mean, N = 4) of 7.41 ng·h/mL, a clearance ([2]; healthy subjects, infusion rate 1/3/9 ng/kg/min, mean, N = 4, read-out: CL (converted)) of 4.67 mL/min/kg and a Tmax ([2]; healthy subjects, infusion rate 1/3/9 ng/kg/min, median, N = 5) of 7 h. It also gave an AUC(0-inf) [2, 6] of 28.9 ng·h/mL, a Cmax [2, 6] of 7.26 ng/mL and a clearance ([2]; healthy subjects, infusion rate 9/18/36 ng/kg/min, mean, N = 5, read-out: CL (converted)) of 5.5 mL/min/kg. For the same substance, the Tmax ([2]; healthy subjects, infusion rate 9/18/36 ng/kg/min, median, N = 5) was 7 h, the AUC(0-inf) ([2]; healthy subjects, infusion rate 18/36/72 ng/kg/min, N = 1) was 68.7 ng·h/mL and the clearance ([2]; healthy subjects, infusion rate 18/36/72 ng/kg/min, N = 1, read-out: CL (converted)) was 4.67 mL/min/kg. It also gave a Cmax ([2]; healthy subjects, infusion rate 18/36/72 ng/kg/min, mean, N = 2) of 14.1 ng/mL, a Tmax ([2]; healthy subjects, infusion rate 18/36/72 ng/kg/min, median, N = 2) of 6.46 h and an AUC(0-inf) [2, 7] of 55.9 ng·h/mL. For the same substance, the Cmax [2, 7] was 9.01 ng/mL, the clearance ([2]; healthy subjects, infusion rate 18/54/72 ng/kg/min, mean, N = 3, read-out: CL (converted)) was 6.83 mL/min/kg and the Tmax ([2]; healthy subjects, infusion rate 18/54/72 ng/kg/min, median, N = 3) was 5.5 h. For the same substance, the AUC(0-inf) [2, 8] was 138 ng·h/mL, the Cmax [2, 8] was 29.1 ng/mL and the Tmax [2, 8] was 7.42 h. For the same substance, the clearance ([2]; healthy subjects, infusion rate 36/72/144 ng/kg/min, N = 1, read-out: CL (converted)) was 4.5 mL/min/kg, the AUC(0-inf) [2, 9] was 95.5 ng·h/mL and the Cmax [2, 9] was 14.6 ng/mL. The clearance ([2]; healthy subjects, infusion rate 54/72/108 ng/kg/min, mean, N = 2, read-out: CL (converted)) was 7 mL/min/kg, the Tmax ([2]; healthy subjects, infusion rate 54/72/108 ng/kg/min, median, N = 2) was 6.99 h and the clearance ([2]; iv, healthy humans, intravenous infusion, for a 70-kg person, read-out: clearance (CL) (converted)) was roughly 500 mL/min.
